{"source": "patent US9062072B2", "about": "“Inhibitors of HIF and angiogenesis” (Emory University, priority 2010, dated 2015)", "system": "HIF-1-mediated transcription", "test": "HIF-1-mediated transcription under hypoxia, LN229-HRE-Lux luciferase reporter assay", "format": "cell-based, human", "conditions": "for IC50: LN229-HRE-Lux cells, hypoxia (1% O2)", "method": "The synthesized analogues were evaluated for their potential to inhibit HIF-1-mediated transcription under hypoxia (1% O2) using a human glioma cell line LN229-HRE-Lux, which stably expresses a hypoxia-responsive luciferase reporter gene (Table 1-9). […] The compounds were tested in single (n=1) or multiple (n>1) independent experiments each carried out in quadruplicate.\nLN229-HRE-luciferase human glioblastoma cells were used to perform the assay. […] 48-well plates were seeded with 3.10^4 cells per well and incubated under normoxic conditions for 24 h. Cells were then pre-treated with different concentrations of KCN-1 or its analogues for 1 h and then transferred to hypoxic conditions. After 24 h, media was aspirated, cells were lysed and reporter activity was measured in the lysate using Luciferase Assay System (Promega, Madison, Wis.) with 20/20^n Luminometer (Promega).", "key": {"[1]": {"conditions": "Homo sapiens, 24 h, Table 3, 24 h, read-out: IC50"}, "[2]": {"conditions": "Homo sapiens, 24 h, 24 h, read-out: IC50"}, "[3]": {"conditions": "Homo sapiens, 24 h, Table 4, 24 h, read-out: IC50"}, "[4]": {"conditions": "Homo sapiens, 24 h, Table 5, 24 h, read-out: IC50"}, "[5]": {"conditions": "Homo sapiens, 24 h, Table 6, 24 h, read-out: IC50"}, "[6]": {"conditions": "Homo sapiens, 24 h, Table 7, 24 h, results from single runs, read-out: IC50"}, "[7]": {"conditions": "Homo sapiens, 24 h, Table 8, 24 h, results from single runs, read-out: IC50"}}, "note": "Like-named read-outs stand apart in the source and are kept apart here."}
{"molecule": "COc1ccc(S(=O)(=O)N(Cc2ccc3c(c2)C=CC(C)(C)O3)c2ccccc2)cc1", "note": "[Compound 5j, N-((2,2-Dimethyl-2H-chromen-6-yl)methyl)-4-methoxy-N-phenylbenzenesulfonamide]", "values": [{"measurement": "IC50", "setting": "[1]", "value": 600, "unit": "nM"}]}
{"molecule": "Cc1cc(C)cc(S(=O)(=O)N(Cc2ccc3c(c2)C=CC(C)(C)O3)c2ccccc2)c1", "note": "[Compound 5k, N-((2,2-Dimethyl-2H-chromen-6-yl)methyl)-3,5-dimethyl-N-phenylbenzenesulfonamide]", "values": [{"measurement": "IC50", "setting": "[1]", "value": 500, "unit": "nM"}, {"measurement": "IC50", "setting": "[2]", "value": 600, "unit": "nM"}]}
{"molecule": "CC1(C)C=Cc2cc(CN(c3ccccc3)S(=O)(=O)c3cc(Cl)ccc3Cl)ccc2O1", "note": "[Compound 5l, 2,5-Dichloro-N-((2,2-dimethyl-2H-chromen-6-yl)methyl)-N-phenylbenzenesulfonamide]", "values": [{"measurement": "IC50", "setting": "[1]", "value": 2100, "unit": "nM"}]}
{"molecule": "CC1(C)C=Cc2cc(CN(c3ccccc3)S(=O)(=O)c3ccc(Br)cc3OC(F)(F)F)ccc2O1", "note": "[Compound 5m, 4,4-Bromo-N-((2,2-dimethyl-2H-chromen-6-yl)methyl)-N-phenyl-2-(trifluoromethoxy)benzenesulfonamide]", "values": [{"measurement": "IC50", "setting": "[1]", "value": "> 25000", "unit": "nM"}]}
{"molecule": "CCC1(C)C=Cc2cc(CN(c3ccccc3)S(=O)(=O)c3ccc(OC)c(OC)c3)ccc2O1", "note": "(stereo not shown) [Compound 10, N-((2-Ethyl-2-methyl-2H-chromen-6-yl)methyl)-3,4-dimethoxy-N-phenylbenzenesulfonamide]", "values": [{"measurement": "IC50", "setting": "[3]", "value": 3100, "unit": "nM"}, {"measurement": "IC50", "setting": "[2]", "value": 2200, "unit": "nM"}]}
{"molecule": "COc1ccc(S(=O)(=O)N(Cc2cnc3ccccc3c2)c2ccccc2)cc1OC", "note": "[Compound 13, 3,4-Dimethoxy-N-phenyl-N-(quinolin-3-ylmethyl)benzenesulfonamide]", "values": [{"measurement": "IC50", "setting": "[3]", "value": 1300, "unit": "nM"}, {"measurement": "IC50", "setting": "[2]", "value": 3500, "unit": "nM"}]}
{"molecule": "COc1ccc(S(=O)(=O)N(Cc2ccc3c(c2)CC(C)(C)O3)c2ccccc2)cc1OC", "note": "[Compound 16a, N-((2,2-Dimethyl-2,3-dihydrobenzofuran-5-yl)methyl)-3,4-dimethoxy-N-phenylbenzenesulfonamide]", "values": [{"measurement": "IC50", "setting": "[4]", "value": 500, "unit": "nM"}]}
{"molecule": "COc1ccc(S(=O)(=O)N(Cc2ccc3c(c2)CC(C)(C)O3)C2CCCCCC2)cc1OC", "note": "[Compound 16b, N-Cycloheptyl-N-((2,2-dimethyl-2,3-dihydrobenzofuran-5-yl)methyl)-3,4dimethoxybenzenesulfonamide]", "values": [{"measurement": "IC50", "setting": "[4]", "value": 9100, "unit": "nM"}, {"measurement": "IC50", "setting": "[2]", "value": 9100, "unit": "nM"}]}
{"molecule": "COc1ccc(S(=O)(=O)N(Cc2ccc3c(c2)CC(C)(C)O3)C(C)C)cc1OC", "note": "[Compound 16c, N-((2,2-dimethyl-2,3-dihydrobenzofuran-5-yl)methyl)-N-isopropyl-3,4-dimethoxybenzenesulfonamide]", "values": [{"measurement": "IC50", "setting": "[4]", "value": 1500, "unit": "nM"}]}
{"molecule": "CCCCN(Cc1ccc2c(c1)CC(C)(C)O2)S(=O)(=O)c1ccc(OC)c(OC)c1", "note": "[Compound 16d, N-Butyl-N-((2,2-dimethyl-2,3-dihydrobenzofuran-5-yl)methyl)-3,4-dimethoxybenzenesulfonamide]", "values": [{"measurement": "IC50", "setting": "[4]", "value": 600, "unit": "nM"}]}
{"molecule": "COc1ccc(S(=O)(=O)N(Cc2ccc3c(c2)CC(C)(C)O3)C2CCCCC2)cc1OC", "note": "[Compound 16e, N-Cyclohexyl-N-((2,2-dimethyl-2,3-dihydrobenzofuran-5-yl)methyl)-3,4-dimethoxybenzenesulfonamide]", "values": [{"measurement": "IC50", "setting": "Homo sapiens, 24 h, Table 5", "value": 8200, "unit": "nM"}, {"measurement": "IC50", "setting": "Homo sapiens, 24 h", "value": 8200, "unit": "nM"}]}
{"molecule": "COc1ccc(S(=O)(=O)N(Cc2ccc3c(c2)CC(C)(C)O3)C2CCCC2)cc1OC", "note": "[Compound 16f, N-Cyclopentyl-N-((2,2-dimethyl-2,3-dihydrobenzofuran-5-yl)methyl)-3,4-dimethoxybenzenesulfonamide]", "values": [{"measurement": "IC50", "setting": "[4]", "value": 400, "unit": "nM"}, {"measurement": "IC50", "setting": "[2]", "value": 400, "unit": "nM"}]}
{"molecule": "COc1ccc(S(=O)(=O)N(Cc2cnc3c(c2)C=CC(C)(C)O3)c2ccccc2)cc1OC", "note": "[Compound 20a, N-((2,2-Dimethyl-2H-pyrano[2,3-b]pyridin-6-yl)methyl)-3,4-dimethoxy-N-phenylbenzenesulfonamide]", "values": [{"measurement": "IC50", "setting": "[5]", "value": 2500, "unit": "nM"}, {"measurement": "IC50", "setting": "[2]", "value": 2500, "unit": "nM"}]}
{"molecule": "COc1ccc(S(=O)(=O)N(Cc2cnc3c(c2)C=CC(C)(C)O3)C2CCCCC2)cc1OC", "note": "[Compound 20b, N-Cyclohexyl-N-((2,2-dimethyl-2H-pyrano[2,3-b]pyridin-6-yl)methyl)-3,4-dimethoxybenzenesulfonamide]", "values": [{"measurement": "IC50", "setting": "[5]", "value": "> 25000", "unit": "nM"}]}
{"molecule": "COc1ccc(S(=O)(=O)N(Cc2ccc3c(n2)C=CC(C)(C)O3)c2ccccc2)cc1OC", "note": "[Compound 26a, N-((2,2-dimethyl-2H-pyrano[3,2-b]pyridin-6-yl)methyl)-3,4-dimethoxy-N-phenylbenzenesulfonamide]", "values": [{"measurement": "IC50", "setting": "[6]", "value": 1300, "unit": "nM"}, {"measurement": "IC50", "setting": "Homo sapiens, unit inferred, read-out: IC50", "value": 1300, "unit": "nM"}]}
{"molecule": "CCCCN(Cc1ccc2c(n1)C=CC(C)(C)O2)S(=O)(=O)c1ccc(OC)c(OC)c1", "note": "[Compound 26b, N-Butyl-N-((2,2-dimethyl-2H-pyrano[3,2-b]pyridin-6-yl)methyl)-3,4-dimethoxybenzenesulfonamide]", "values": [{"measurement": "IC50", "setting": "[6]", "value": 900, "unit": "nM"}]}
{"molecule": "COc1ccc(N(Cc2ccc3c(n2)C=CC(C)(C)O3)S(=O)(=O)c2ccc(OC)c(OC)c2)cc1OC", "note": "[Compound 26c, N-(3,4-Dimethoxyphenyl)-N-((2,2-dimethyl-2H-pyrano[3,2-b]pyridin-6-yl)methyl)-3,4-dimethoxybenzenesulfonamide]", "values": [{"measurement": "IC50", "setting": "[6]", "value": "> 25000", "unit": "nM"}]}
{"molecule": "COc1ccc(S(=O)(=O)N(Cc2ccc3c(n2)C=CC(C)(C)O3)C2CCCC2)cc1OC", "note": "[Compound 26d, N-Cyclopentyl-N-((2,2-dimethyl-2H-pyrano[3,2-b]pyridin-6-yl)methyl)-3,4-dimethoxybenzenesulfonamide]", "values": [{"measurement": "IC50", "setting": "[6]", "value": 600, "unit": "nM"}]}
{"molecule": "COc1ccc(S(=O)(=O)N(Cc2ccc3c(n2)C=CC(C)(C)O3)C2CCCCC2)cc1OC", "note": "[Compound 26e, N-Cyclohexyl-N-((2,2-dimethyl-2H-pyrano[3,2-b]pyridin-6-yl)methyl)-3,4-dimethoxybenzenesulfonamide]", "values": [{"measurement": "IC50", "setting": "[6]", "value": 800, "unit": "nM"}]}
{"molecule": "COc1ccc(S(=O)(=O)N(Cc2ccc3c(n2)C=CC(C)(C)O3)C2CCCCCC2)cc1OC", "note": "[Compound 26g, N-Cycloheptyl-N-((2,2-dimethyl-2H-pyrano[3,2-b]pyridin-6-yl)methyl)-3,4-dimethoxybenzenesulfonamide]", "values": [{"measurement": "IC50", "setting": "[6]", "value": 6600, "unit": "nM"}]}
{"molecule": "COc1ccc(S(=O)(=O)N(Cc2ccc3c(n2)C=CC(C)(C)O3)C2CCCCCCC2)cc1OC", "note": "[Compound 26h, N-Cyclooctyl-N-((2,2-dimethyl-2H-pyrano[3,2-b]pyridin-6-yl)methyl)-3,4-dimethoxybenzenesulfonamide]", "values": [{"measurement": "IC50", "setting": "[6]", "value": 700, "unit": "nM"}]}
{"molecule": "COc1ccc(S(=O)(=O)N(Cc2ccc3c(n2)C=CC(C)(C)O3)C2CCC2)cc1OC", "note": "[Compound 26i, N-Cyclobutyl-N-((2,2-dimethyl-2H-pyrano[3,2-b]pyridin-6-yl)methyl)-3,4-dimethoxybenzenesulfonamide]", "values": [{"measurement": "IC50", "setting": "[6]", "value": 250, "unit": "nM"}, {"measurement": "IC50", "setting": "[2]", "value": 250, "unit": "nM"}, {"measurement": "fold higher potency than KCN-1", "setting": "IC50 compared with KCN-1, LN229-HRE-Lux reporter assay", "value": "~3", "unit": "fold"}, {"measurement": "IC50", "setting": "24 h, read-out: IC50", "value": 400, "unit": "nM"}]}
{"molecule": "COc1ccc(S(=O)(=O)N(Cc2ccc3c(n2)C=CC(C)(C)O3)c2ccc(F)cc2)cc1OC", "note": "[Compound 26j, N-((2,2-dimethyl-2H-pyrano[3,2-b]pyridin-6-yl)methyl)-N-(4-fluorophenyl)-3,4-dimethoxybenzenesulfonamide]", "values": [{"measurement": "IC50", "setting": "[6]", "value": 5700, "unit": "nM"}]}
{"molecule": "CC1(C)C=Cc2nc(CN(c3ccccc3)S(=O)(=O)C3CCCCC3)ccc2O1", "note": "[Compound 26k, N-((2,2-Dimethyl-2H-pyrano[3,2-b]pyridin-6-yl)methyl)-N-phenylcyclohexanesulfonamide]", "values": [{"measurement": "IC50", "setting": "Homo sapiens, 24 h, Table 8, results from single runs", "value": 400, "unit": "nM"}]}
{"molecule": "CC(C)S(=O)(=O)N(Cc1ccc2c(n1)C=CC(C)(C)O2)c1ccccc1", "note": "[Compound 26l, N-((2,2-Dimethyl-2H-pyrano[3,2-b]pyridin-6-yl)methyl)-N-phenylpropane-2-sulfonamide]", "values": [{"measurement": "IC50", "setting": "[7]", "value": 13400, "unit": "nM"}]}
{"molecule": "CC1(C)C=Cc2nc(CN(c3ccccc3)S(=O)(=O)C3CC3)ccc2O1", "note": "[Compound 26m, N-((2,2-Dimethyl-2H-pyrano[3,2-b]pyridin-6-yl)methyl)-N-phenylcyclopropanesulfonamide]", "values": [{"measurement": "IC50", "setting": "[7]", "value": "> 25000", "unit": "nM"}]}
